Results from patent US4138554A, “7-[D-α-(4-Hydroxy-1,5-naphthyridine-3-carboxamido)-α-phenyl (and p-hydroxyphenyl)acetamido]-3-carbamoyloxymethyl-3-cephem-4-carboxylic acids” (priority 1977, dated 1979).
Converted amounts (≈) assume the structure as drawn. Like-named read-outs stand apart in the source and are kept apart here.

Key:
E. coli = test: MIC by serial two-fold agar dilution (Mueller-Hinton agar), E. coli; format: cell-based; conditions: Escherichia coli
Description: (§1) Minimum inhibitory concentrations (MIC) of BB-S520 were determined by serial two-fold agar dilution method using Steers' apparatus on Meuller-Hinton agar plate against 31 test organisms for the primary screening and also against 61 strains of Pseudomonas aeruginosa for the secondary evaluation. The results are shown in Table 1 and Table 2 along with those of BB-S514 and sulbenicillin.
(§2) Minimum inhibitory concentrations (MIC) of cephalosporins in the present study were determined by serial two-fold agar dilution method using Steers' apparatus on Mueller-Hinton agar plate against 31 test organisms for the primary screening and also against 61 strains of Pseudomonas aeruginosa for the secondary evaluation.

K. pneumoniae = test: MIC by serial two-fold agar dilution (Mueller-Hinton agar), K. pneumoniae; format: cell-based; conditions: Klebsiella pneumoniae
Description: as §1, §2

P. morganii = test: MIC by serial two-fold agar dilution (Mueller-Hinton agar), P. morganii; format: cell-based
Description: as §1, §2

[1] = tested on: Gram-positive (6 strains); test: Mean % relative activity (MIC) vs sulbenicillin, Gram-positive (6 strains); format: cell-based; conditions: for Mean % Relative Activity (Sulbenicillin = 100%): Gram-positive (6 strains), from geometric means of MICs in Table 1; for Mean % Relative Activity (SPBC = 100%): G (+) (6 strains)
Description: as §1, §2

[2] = tested on: Gram-negative (19 strains); test: Mean % relative activity (MIC) vs sulbenicillin, Gram-negative (19 strains); format: cell-based; conditions: for Mean % Relative Activity (Sulbenicillin = 100%): Gram-negative (19 strains), from geometric means of MICs in Table 1; for Mean % Relative Activity (SPBC = 100%): G (-) (19 strains)
Description: as §1, §2

S. aureus Smith = test: Median curative dose in mice, infection with S. aureus Smith; format: in vivo; conditions: Staphylococcus aureus, sc
Source text: Median Curative Dose in Mgm./Kg.
Upon Subcutaneous Injection in Mice

[3] = Mouse blood levels after subcutaneous injection; format: in vivo; conditions: sc
Source text: |Mouse Blood Levels | Blood Levels in Mcg./Ml. at | Indicated Hours After Subcu- |Dose in taneous Injection

Pseudomonas sp. = test: MIC by serial two-fold agar dilution (Mueller-Hinton agar), Pseudomonas sp.; format: cell-based; conditions: Pseudomonas sp. A20358, Table 6
Description: as §2

[4] = E. coli Juhl, Table 1, read-out: MIC
[5] = E. coli NIHJ, Table 1, read-out: MIC
[6] = E. coli, unnamed strain (3rd E. coli line), Table 1
[7] = E. coli, unnamed strain (4th E. coli line), Table 1, read-out: MIC
[8] = E. coli, unnamed strain (5th E. coli line), Table 1, read-out: MIC
[9] = E. coli, unnamed strain (6th E. coli line), Table 1, read-out: MIC
[10] = E. coli, unnamed strain (7th E. coli line), Table 1, read-out: MIC
[11] = E. coli, unnamed strain (8th E. coli line), Table 1, read-out: MIC
[12] = E. coli, unnamed strain (9th E. coli line), Table 1, read-out: MIC
[13] = Morganella morganii, P. morganii, Table 1, read-out: MIC
[14] = subcutaneous injection in mice, S. aureus Smith, Table 4, read-out: Median Curative Dose (PD50)
[15] = E. coli A9435, Table 6, read-out: MIC
[16] = E. coli A9844, Table 6, read-out: MIC
[17] = E. coli A10664, Table 6, read-out: MIC
[18] = E. coli A20366, Table 6, read-out: MIC
[19] = E. coli A20520, Table 6, read-out: MIC
[20] = E. coli A20732, Table 6, read-out: MIC
[21] = E. coli A20898, Table 6, read-out: MIC
[22] = E. coli Juhl A15119, Table 6, read-out: MIC
[23] = E. coli NIHJ, Table 6, read-out: MIC

Structure (SMILES) | MIC (E. coli; [4]) | MIC (E. coli; [5]) | MIC (E. coli; [6]) | MIC (E. coli; [7]) | MIC (E. coli; [8]) | MIC (E. coli; [9]) | MIC (E. coli; [10]) | MIC (E. coli; [11]) | MIC (E. coli; [12]) | MIC (K. pneumoniae; K. pneumoniae, Table 1) | MIC (P. morganii; [13]) | Mean % Relative Activity (Sulbenicillin = 100%) [1] | Mean % Relative Activity (Sulbenicillin = 100%) [2] | ED50 (S. aureus Smith; [14]) | MIC (E. coli; [15]) | MIC (E. coli; [16]) | MIC (E. coli; [17]) | MIC (E. coli; [18]) | MIC (E. coli; [19]) | MIC (E. coli; [20]) | further results
CC(=O)OCC1=C(C(=O)O)N2C(=O)C(NC(=O)C(NC(=O)c3cnc4cccnc4c3O)c3ccccc3)C2SC1 (centres unmarked) [BB-S514] | 12.5 µg/mL (≈ 21.6 µM) | 0.1 µg/mL (≈ 0.173 µM) | 0.4 µg/mL (≈ 0.693 µM) | 0.4 µg/mL (≈ 0.693 µM) | > 100 µg/mL | 6.3 µg/mL (≈ 10.9 µM) | > 100 µg/mL | 12.5 µg/mL (≈ 21.6 µM) | 0.8 µg/mL (≈ 1.39 µM) | 6.3 µg/mL (≈ 10.9 µM) | > 100 µg/mL | 71% | 96% | – | – | – | – | – | – | – | –
NC(=O)OCC1=C(C(=O)O)N2C(=O)C(NC(=O)[C@H](NC(=O)c3cnc4cccnc4c3O)c3ccccc3)[C@H]2SC1 (stereo partly drawn) [BB-S520, Sodium 7-[D-α-(4-hydroxy-1,5-naphthyridine-3-carboxamido)-α-phenylacetamido]-3-carbamoyloxymethyl-3-cephem-4-carboxylate] | 1.6 µg/mL | 0.05 µg/mL | – | 0.8 µg/mL | 100 µg/mL | 3.1 µg/mL | 100 µg/mL | 3.1 µg/mL | 0.4 µg/mL | 1.6 µg/mL | > 100 µg/mL | 200% | 179% | 0.8 mg/kg | – | – | – | – | – | – | Mean % Relative Activity (SPBC = 100%) ([1]; lot 1, Table 5): 200%; Mean % Relative Activity (SPBC = 100%) ([1]; lot 2, Table 5): 141%; concentration at 0.25 h ([3]; in vivo, 20 mg/kg): 13000 ng/mL; concentration at 0.5 h ([3]; in vivo, 20 mg/kg): 9000 ng/mL; concentration at 1 h ([3]; in vivo, 20 mg/kg): 3700 ng/mL; concentration at 0.25 h ([3]; in vivo, 40 mg/kg): 25000 ng/mL; concentration at 0.5 h ([3]; in vivo, 40 mg/kg): 20000 ng/mL; concentration at 1 h ([3]; in vivo, 40 mg/kg): 7000 ng/mL; concentration at 2 h ([3]; in vivo, 40 mg/kg): 1000 ng/mL; Mean % Relative Activity (SPBC = 100%) ([2]; lot 1, Table 5): 179%; Mean % Relative Activity (SPBC = 100%) ([2]; lot 2, Table 5): 108%
CC1(C)S[C@@H]2[C@H](NC(=O)C(c3ccccc3)S(=O)(=O)O)C(=O)N2[C@H]1C(=O)O (some centres unmarked) [Sulbenicillin, sulbenicillin] | 1.6 µg/mL (≈ 3.86 µM) | 0.8 µg/mL (≈ 1.93 µM) | 0.8 µg/mL (≈ 1.93 µM) | 1.6 µg/mL (≈ 3.86 µM) | > 100 µg/mL | 6.3 µg/mL (≈ 15.2 µM) | > 100 µg/mL | > 100 µg/mL | 6.3 µg/mL (≈ 15.2 µM) | 6.3 µg/mL (≈ 15.2 µM) | > 100 µg/mL | – | – | 2.4 mg/kg | 12.5 µg/mL (≈ 30.2 µM) | 0.8 µg/mL (≈ 1.93 µM) | 1.6 µg/mL (≈ 3.86 µM) | > 100 µg/mL | 6.3 µg/mL (≈ 15.2 µM) | 100 µg/mL (≈ 241 µM) | MIC (E. coli; [21]): > 100 µg/mL; MIC (E. coli; [22]): 3.1 µg/mL (≈ 7.48 µM); MIC (E. coli; [23]): 0.8 µg/mL (≈ 1.93 µM); MIC (K. pneumoniae; K. pneumoniae A9977, Table 6): 3.1 µg/mL (≈ 7.48 µM); MIC (P. morganii; P. morganii A9553, Table 6): > 100 µg/mL; MIC (Pseudomonas sp.): 3.1 µg/mL (≈ 7.48 µM); concentration at 0.25 h ([3]; blood, 20 mg/kg, subcutaneous, 20 Mgm./Kg., 0.25 hours, read-out: Blood Levels): 9800 ng/mL; concentration at 0.5 h ([3]; blood, 20 mg/kg, subcutaneous, 20 Mgm./Kg., 0.5 hours, read-out: Blood Levels): 7500 ng/mL; concentration at 1 h ([3]; blood, 20 mg/kg, subcutaneous, 20 Mgm./Kg., 1.0 hours, read-out: Blood Levels): 1200 ng/mL; concentration at 0.25 h ([3]; blood, 40 mg/kg, subcutaneous, 40 Mgm./Kg., 0.25 hours, read-out: Blood Levels): 22000 ng/mL; concentration at 0.5 h ([3]; blood, 40 mg/kg, subcutaneous, 40 Mgm./Kg., 0.5 hours, read-out: Blood Levels): 14000 ng/mL; concentration at 1 h ([3]; blood, 40 mg/kg, subcutaneous, 40 Mgm./Kg., 1.0 hours, read-out: Blood Levels): 5000 ng/mL; concentration at 2 h ([3]; blood, 40 mg/kg, subcutaneous, 40 Mgm./Kg., 2.0 hours, read-out: Blood Levels): < 1000 ng/mL
NC(=O)OCC1=C(C(=O)O)N2C(=O)C(NC(=O)[C@H](NC(=O)c3cnc4cccnc4c3O)c3ccc(O)cc3)C2SC1 (single isomer, unassigned) [BB-S530, Sodium 7-[D-(-)-α-(4-hydroxy-1,5-naphthyridine-3-carboxamido)-α-(p-hydroxyphenyl)acetamido]-3-carbamoyloxymethyl-3-cephem-4-carboxylate] | – | – | – | – | – | – | – | – | – | – | – | – | – | – | 3.1 µg/mL | 0.4 µg/mL | 0.2 µg/mL | > 100 µg/mL | 3.1 µg/mL | 3.1 µg/mL | MIC (E. coli; [21]): 100 µg/mL; MIC (E. coli; [22]): 1.6 µg/mL; MIC (E. coli; [23]): 1.6 µg/mL; MIC (K. pneumoniae; K. pneumoniae A9977, Table 6): 1.6 µg/mL; ED50 (S. aureus Smith; mice, S. aureus Smith infection, Table 5, read-out: PD50): 1.3 mg/kg; MIC (P. morganii; Morganella morganii, P. morganii A9553, Table 6, read-out: MIC): > 100 µg/mL; MIC (Pseudomonas sp.): 0.4 µg/mL; Mean % Relative Activity (SPBC = 100%) ([1]; Table 5): 141%; Mean % Relative Activity (SPBC = 100%) ([2]; Table 5): 108%
